In patent publication US20130131088A1 (UNIVERSITY HEALTH NETWORK, priority 2010, published 2013):

Legend:
AML-3 cell line [1] = test: potentiation of statin cytotoxic/apoptotic effects by agents that mimic DP activities; assay type: cell-based; conditions: for potentiation of the cytotoxic effects of statins / statin cancer cell death: in combination with statin (forskolin with fluvastatin)
Protocol: The mechanism of action was investigated. First, to tease apart which of DP's many activities may be functionally critical, the synergistic potential of a panel of agents that mimics DP in one or more of its activities was tested (see Table 1).
As cilostazol inhibits PDE3 which activates. PKA, studies were carried out using various PKA activators, including forskolin, a cell permeable analog of cAMP, db-cAMP, and a PDE3 inhibitor. […] Inhibition of PDEs 6, 9 and 11 by zaprinast is expected to raise cGMP but not cAMP levels.

CREB phosphorylation = CREB phosphorylation immunoblot (LI-COR quantification); assay type: cell-based; conditions: AML-3 cell line, 2 hours post-treatment
Protocol: (§1) As cilostazol inhibits PDE3 which activates. PKA, studies were carried out using various PKA activators, including forskolin, a cell permeable analog of cAMP, db-cAMP, and a PDE3 inhibitor.

[2] = system: KMS11-luc (KMS11 cells stably expressing luciferase)
Source text: Tumours were imaged in mice on designated days by whole-body imaging using the IVIS imaging system illustrated by a representative image (C). Briefly, mice were i.p. injected with luciferein followed by anesthetization with isoflurane. Signal intensity was quantified using Living Image versio 2.50.2 (Xenogen) by summing detected photon counts from dorsal and ventral images.

AML-3 cell line [3] = test: apoptosis by fixed PI, TUNEL and PARP cleavage; conditions: combination of dipyridamole and atorvastatin, 48 hrs; MVA dependant
[4] = system: primary AML patient samples; test: apoptosis by Annexin V and propidium iodide dual staining; assay type: cell-based; conditions: 48 hrs
Source text: AV−/PI−=live cells, AV+/PI−=early apoptosis, AV+/PI+=late apoptosis, AV−/PI+=necrosis.

[5] = system: HMGCR mRNA in LP1 mM cells; test: HMGCR mRNA levels by real-time PCR (SYBR Green); assay type: cell-based; conditions: combination of statins and dipyridamole, 16 hours post compound treatment
Protocol: (§2) RNA from primary AML and LP1 cells was harvested 24 and 16 hours post compound treatment respectively using TRIZOL reagent. HMGCR mRNA levels were assessed using real-time PCR (SYBR Green). […] For example, Fluva 2 indicates a fluvastatin concentration of 2 μM.

[6] = system: KMS11 Multiple Myeloma (MM) cells; test: chemical screen for compounds potentiating the anti-proliferative/cytotoxic effect of atorvastatin (MTS); assay type: cell-based; conditions: sublethal doses in combination with atorvastatin (IC20), 72 hours
Protocol: A hundred compounds from the chemical library (see text) were assayed at varying concentrations (5-50 μM).
One hundred compounds were evaluated for their ability to potentiate the anti-proliferative activity of atorvastatin on statin-sensitive KMS11 mM cells. Briefly, cells were exposed to sublethal doses of atorvastatin (IC20) alone and in combination with sublethal doses of the compounds.

[7] = system: HMGCR mRNA in primary AML patient samples; test: HMGCR mRNA levels by real-time PCR (SYBR Green); assay type: cell-based; conditions: combination of statins and dipyridamole, 24 hours post compound treatment
Protocol: as §2

KMS11 cell line = test: apoptosis by fixed PI, TUNEL and PARP cleavage; conditions: combination of dipyridamole and atorvastatin, 48 hrs; MVA dependant
[8] = system: breast cancer cell lines (e.g. MCF-7); test: potentiation and synergy with statin in breast cancer cell lines; assay type: cell-based; conditions: with fluvastatin, 72 hours
Protocol: (§3) Atorvastatin was used in A549's and fluvastatin the breast cancer cell lines to asses potentiation and synergy.
(§4) Experiments in breast cancer cell lines (e.g. MCF-7) as well as the lung cancer cell lines (e.g. A549) were carried out similarly as described above.
(§5) Atorvastatin was used in A549's and fluvastatin the breast cancer cell lines to assess potentiation and synergy.

A549 = test: potentiation and synergy with statin in lung cancer cell line; assay type: cell-based; conditions: with atorvastatin, 72 hours
Protocol: as §3, §4, §5

[9] = system: AML cell lines and the KMS11 mM cell line; test: combination tests (FIG. 12); assay type: cell-based; conditions: in combination with fluvastatin
Source text: FIG. 12. Combination tests.

KMS11 = test: potentiation of statin cytotoxic effects by agents that mimic DP activities; assay type: cell-based; conditions: in combination with statin
Protocol: as §1

AML-2 = test: as above; assay type: cell-based; conditions: in combination with statin
Protocol: as §1

[10] = p.o. three times a week for 37 days initiated 2 days post KMS11-luc injection, alone

## C=C[C@@]1(C)CC(=O)[C@]2(O)[C@@]3(C)[C@@H](O)CCC(C)(C)[C@@H]3[C@H](O)[C@H](OC(C)=O)[C@@]2(C)O1 [forskolin]
AML-3 cell line [1]
  potentiation of the cytotoxic effects of statins / statin cancer cell death: potentiated

## CCCC(=O)Nc1ncnc2c1ncn2[C@@H]1O[C@@H]2COP(=O)(O)O[C@H]2[C@H]1OC(=O)CCC [db-cAMP, dibutyryl-cAMP]
CREB phosphorylation
  CREB phosphorylation: increase
AML-3 cell line [1]; 0.25 mM in combination with atorvastatin, 48 hours post treatment
  apoptotic effects in combination with atorvastatin: recapitulated the DP-atorvastatin apoptotic effects

## CC(C)c1c(C(=O)Nc2ccccc2)c(-c2ccccc2)c(-c2ccc(F)cc2)n1CC[C@@H](O)C[C@@H](O)CC(=O)O [atorvastatin]
[2]; lower doses, p.o. 3 times a week
  effect on tumour growth, lower doses alone: no significant effect
[2]; [10]
  survival: prolonged
  tumor burden: significantly reduced

## OCCN(CCO)c1nc(N2CCCCC2)c2nc(N(CCO)CCO)nc(N3CCCCC3)c2n1 [dipyridamole]
AML-3 cell line [3]
  induction of apoptosis: induced apoptosis
[4]; in combination with atorvastatin
  induction of apoptosis: induced apoptosis
[4]; in combination with fluvastatin
  induction of apoptosis: induced apoptosis
CREB phosphorylation
  CREB phosphorylation: increase
[5]
  upregulation of HMGCR mRNA: prevents the upregulation
[6]
  potentiation of the anti-proliferative activity of atorvastatin: remarkable potentiation
[7]
  upregulation of HMGCR mRNA: prevents the upregulation
KMS11 cell line
  induction of apoptosis: induced apoptosis
[8]
  potentiation of the anti-cancer effects of statins: potentiated
A549
  potentiation of the anti-cancer effects of statins: potentiated

## O=C1CCc2cc(OCCCCc3nnnn3C3CCCCC3)ccc2N1 [Cilostazol, cilostazol]
[9]
  level of potentiation compared with dipyridamole+fluvastatin: similar
  potentiation of fluvastatin cell death: potentiated
KMS11
  potentiation of the cytotoxic effects of statins: potentiated
AML-2
  potentiation of the cytotoxic effects of statins: potentiated
AML-3 cell line [1]
  potentiation of the cytotoxic effects of statins / statin cancer cell death: potentiated
